The results in this text go back to paper PMC10539361, “Allosteric modulation of the fish taste receptor type 1 (T1R) family by the extracellular chloride ion” (Scientific Reports, 2023).

Broadly, the EC50 is the concentration giving half of the maximal effect.

One assay concerns the target mfT1R2a/mfT1R3 T105E (Oryzias latipes, UniProt Q2MHK2+Q2MHK5, Q2MHK2:T105E). In words: cell-based. Particulars: EC50, [Cl-]o=10 mM; unit inferred.
In another assay the target is mfT1R2a K265A/mfT1R3 (Oryzias latipes, UniProt Q2MHK2+Q2MHK5, Q2MHK5:K265A). In words: cell-based. Particulars: EC50, [Cl-]o=10 mM; no unit printed with values, x-axis title L-Gln [M].
Another assay deals with mfT1R2a K265E/mfT1R3 (Oryzias latipes, UniProt Q2MHK2+Q2MHK5, Q2MHK5:K265E). Put plainly: cell-based. Particulars: EC50, [Cl-]o=10 mM; no unit printed with values, x-axis title L-Gln [M].
The next assay deals with mfT1R2a K295P/mfT1R3 (Oryzias latipes, UniProt Q2MHK2+Q2MHK5, Q2MHK5:K295P). Put plainly: cell-based. Particulars: EC50, [Cl-]o=10 mM; no unit printed with values, x-axis title L-Gln [M].
A further assay deals with T1, mfT1R2a/mfT1R3 (Oryzias latipes, UniProt Q2MHK2+Q2MHK5).
T1 sequence (Q2MHK5 20-819): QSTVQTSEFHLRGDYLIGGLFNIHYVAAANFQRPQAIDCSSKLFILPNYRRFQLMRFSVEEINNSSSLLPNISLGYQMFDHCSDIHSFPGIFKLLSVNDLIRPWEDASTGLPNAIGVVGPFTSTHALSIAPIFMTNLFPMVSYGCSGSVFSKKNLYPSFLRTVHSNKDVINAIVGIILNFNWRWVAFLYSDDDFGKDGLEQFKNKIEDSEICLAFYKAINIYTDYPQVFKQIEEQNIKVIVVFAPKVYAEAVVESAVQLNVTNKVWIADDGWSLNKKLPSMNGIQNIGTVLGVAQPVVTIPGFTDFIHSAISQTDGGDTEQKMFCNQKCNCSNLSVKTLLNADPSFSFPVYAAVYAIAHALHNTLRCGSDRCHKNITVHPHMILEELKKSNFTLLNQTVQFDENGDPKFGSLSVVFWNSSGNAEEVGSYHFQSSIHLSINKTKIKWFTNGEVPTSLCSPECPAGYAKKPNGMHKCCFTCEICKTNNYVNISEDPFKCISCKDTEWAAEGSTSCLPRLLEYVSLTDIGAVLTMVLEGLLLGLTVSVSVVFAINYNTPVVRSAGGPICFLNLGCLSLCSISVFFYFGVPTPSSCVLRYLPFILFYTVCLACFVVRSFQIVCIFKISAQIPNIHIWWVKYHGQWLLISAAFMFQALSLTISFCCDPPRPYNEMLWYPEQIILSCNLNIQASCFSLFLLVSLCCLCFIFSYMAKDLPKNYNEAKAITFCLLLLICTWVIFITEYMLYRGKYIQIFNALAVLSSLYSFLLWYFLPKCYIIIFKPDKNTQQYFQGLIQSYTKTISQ
T1 sequence (Q2MHK2 20-853): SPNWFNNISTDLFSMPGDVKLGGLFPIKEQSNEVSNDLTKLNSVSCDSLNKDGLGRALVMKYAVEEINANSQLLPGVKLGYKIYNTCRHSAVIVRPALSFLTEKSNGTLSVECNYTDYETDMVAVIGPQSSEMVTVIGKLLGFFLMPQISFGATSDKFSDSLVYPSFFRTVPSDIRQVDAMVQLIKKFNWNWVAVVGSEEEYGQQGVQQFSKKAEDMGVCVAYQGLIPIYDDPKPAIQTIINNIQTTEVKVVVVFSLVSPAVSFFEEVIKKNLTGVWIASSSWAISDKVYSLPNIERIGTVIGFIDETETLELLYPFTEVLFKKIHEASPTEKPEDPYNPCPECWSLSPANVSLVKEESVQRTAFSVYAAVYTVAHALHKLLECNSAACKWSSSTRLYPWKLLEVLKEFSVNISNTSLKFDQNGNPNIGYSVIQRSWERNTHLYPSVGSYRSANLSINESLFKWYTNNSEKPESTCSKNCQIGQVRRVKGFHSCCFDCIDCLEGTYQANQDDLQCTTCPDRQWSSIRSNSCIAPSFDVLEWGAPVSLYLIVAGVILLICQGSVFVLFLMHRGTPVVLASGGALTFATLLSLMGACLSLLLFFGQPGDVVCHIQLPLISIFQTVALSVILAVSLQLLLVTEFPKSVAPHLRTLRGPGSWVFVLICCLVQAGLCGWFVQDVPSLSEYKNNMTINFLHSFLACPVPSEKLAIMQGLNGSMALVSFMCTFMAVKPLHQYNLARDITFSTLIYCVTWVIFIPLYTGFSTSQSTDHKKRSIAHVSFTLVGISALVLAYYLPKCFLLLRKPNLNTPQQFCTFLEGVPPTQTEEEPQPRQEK
In words: Ca2+ mobilization dose-response assay, stable cells expressing mfT1R2a/mfT1R3 with G16gust44. (In general: Calcium flux is commonly read through the fluorescence of an indicator in the cells.)

A further assay relates to mfT1R2b E260K/mfT1R3. It counts as cell-based, medaka fish. The following applies: 10 mM vs high Cl- buffer.
The test system of the next assay is mfT1R2b E260A/mfT1R3. It counts as cell-based, medaka fish. The following applies: 10 mM vs high Cl- buffer.
A further assay concerns the target mfT1R2c/mfT1R3 T105E (Oryzias latipes, UniProt Q2MHK2+Q2MHK3, Q2MHK2:T105E). Put plainly: cell-based. The following applies: EC50, [Cl-]o=10 mM; unit inferred.
In the next assay the target is mfT1R2c/mfT1R3 (Oryzias latipes, UniProt Q2MHK2+Q2MHK3). In words: Ca2+ mobilization dose-response assay, stable cells expressing mfT1R2c/mfT1R3 with G16gust44.
A further assay concerns the target T2, zfT1R2b/zfT1R3 (Danio rerio, UniProt A0A8M1NDZ5+Q2MHK9).
T2 sequence (A0A8M1NDZ5 18-823): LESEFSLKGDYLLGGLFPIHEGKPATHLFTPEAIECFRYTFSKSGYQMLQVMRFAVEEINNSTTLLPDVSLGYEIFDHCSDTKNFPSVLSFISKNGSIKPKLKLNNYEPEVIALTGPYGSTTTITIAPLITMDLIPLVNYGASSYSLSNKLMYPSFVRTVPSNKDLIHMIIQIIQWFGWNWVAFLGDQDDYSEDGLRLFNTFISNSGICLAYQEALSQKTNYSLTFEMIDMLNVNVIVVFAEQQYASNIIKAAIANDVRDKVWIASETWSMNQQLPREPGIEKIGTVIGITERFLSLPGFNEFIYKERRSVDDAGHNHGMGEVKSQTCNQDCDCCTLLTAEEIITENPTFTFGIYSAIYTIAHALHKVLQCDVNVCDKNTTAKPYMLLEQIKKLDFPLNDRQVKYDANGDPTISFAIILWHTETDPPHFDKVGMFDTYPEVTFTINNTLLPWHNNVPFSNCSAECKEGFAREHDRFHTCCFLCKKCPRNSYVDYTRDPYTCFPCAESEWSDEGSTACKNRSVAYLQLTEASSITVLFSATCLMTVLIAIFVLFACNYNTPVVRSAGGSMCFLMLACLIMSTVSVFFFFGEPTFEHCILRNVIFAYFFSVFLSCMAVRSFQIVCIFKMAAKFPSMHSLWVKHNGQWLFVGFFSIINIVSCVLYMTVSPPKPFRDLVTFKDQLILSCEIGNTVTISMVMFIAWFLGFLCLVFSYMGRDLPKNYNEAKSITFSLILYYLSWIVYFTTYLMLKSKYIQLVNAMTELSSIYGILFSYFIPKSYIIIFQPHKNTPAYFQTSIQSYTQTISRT
T2 sequence (Q2MHK9 25-850): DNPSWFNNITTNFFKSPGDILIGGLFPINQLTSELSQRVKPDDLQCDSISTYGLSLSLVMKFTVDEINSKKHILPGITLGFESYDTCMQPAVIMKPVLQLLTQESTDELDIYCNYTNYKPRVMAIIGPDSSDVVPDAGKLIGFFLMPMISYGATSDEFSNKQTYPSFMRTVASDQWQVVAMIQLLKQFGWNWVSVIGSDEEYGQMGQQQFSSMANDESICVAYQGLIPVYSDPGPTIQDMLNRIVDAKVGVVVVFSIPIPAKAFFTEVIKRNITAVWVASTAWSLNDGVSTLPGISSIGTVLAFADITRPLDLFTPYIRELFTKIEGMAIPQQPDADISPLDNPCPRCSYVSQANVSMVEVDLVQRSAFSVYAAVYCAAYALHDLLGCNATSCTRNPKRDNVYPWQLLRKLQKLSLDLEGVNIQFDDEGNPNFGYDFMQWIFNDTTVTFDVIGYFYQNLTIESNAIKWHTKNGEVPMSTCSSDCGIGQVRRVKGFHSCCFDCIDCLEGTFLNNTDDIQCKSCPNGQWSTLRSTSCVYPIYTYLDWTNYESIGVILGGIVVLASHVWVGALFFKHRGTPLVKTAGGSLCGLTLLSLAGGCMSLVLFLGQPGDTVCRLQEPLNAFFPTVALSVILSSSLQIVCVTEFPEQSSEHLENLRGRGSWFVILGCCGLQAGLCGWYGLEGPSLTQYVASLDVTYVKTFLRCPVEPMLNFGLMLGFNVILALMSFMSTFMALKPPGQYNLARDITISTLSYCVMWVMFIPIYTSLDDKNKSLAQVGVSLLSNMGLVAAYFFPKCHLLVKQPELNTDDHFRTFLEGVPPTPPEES
In words: Ca2+ mobilization dose-response assay, stable cells expressing zfT1R2b/zfT1R3 with G16gust44. The following applies: 10 mM vs 141.4 mM Cl- buffer.

The target in another assay is T3, zfT1R2a/zfT1R3 (Danio rerio, UniProt A0A8M1N8F9+Q2MHK9).
T3 sequence (A0A8M1N8F9 26-825): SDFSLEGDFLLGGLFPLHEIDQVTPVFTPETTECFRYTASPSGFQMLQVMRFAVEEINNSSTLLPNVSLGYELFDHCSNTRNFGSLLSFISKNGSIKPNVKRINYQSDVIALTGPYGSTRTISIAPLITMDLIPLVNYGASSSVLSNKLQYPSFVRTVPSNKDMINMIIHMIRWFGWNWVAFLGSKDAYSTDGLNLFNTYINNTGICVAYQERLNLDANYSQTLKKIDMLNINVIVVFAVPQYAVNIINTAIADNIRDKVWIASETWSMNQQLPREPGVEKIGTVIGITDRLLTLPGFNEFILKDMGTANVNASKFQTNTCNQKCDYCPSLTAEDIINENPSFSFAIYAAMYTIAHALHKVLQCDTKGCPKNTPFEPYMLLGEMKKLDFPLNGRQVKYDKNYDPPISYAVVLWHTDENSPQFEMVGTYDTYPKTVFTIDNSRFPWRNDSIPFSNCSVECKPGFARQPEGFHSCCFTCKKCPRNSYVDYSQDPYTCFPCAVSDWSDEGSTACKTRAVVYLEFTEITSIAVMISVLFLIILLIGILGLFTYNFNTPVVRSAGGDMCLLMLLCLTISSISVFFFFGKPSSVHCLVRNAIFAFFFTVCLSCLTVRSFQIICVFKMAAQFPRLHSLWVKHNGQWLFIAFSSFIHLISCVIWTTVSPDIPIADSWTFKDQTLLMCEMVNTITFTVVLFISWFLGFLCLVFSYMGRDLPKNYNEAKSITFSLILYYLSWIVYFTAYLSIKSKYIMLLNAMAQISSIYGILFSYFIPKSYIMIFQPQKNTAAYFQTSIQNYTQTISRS
T3 sequence (Q2MHK9 25-850): T2 sequence (Q2MHK9 25-850)
Put plainly: Ca2+ mobilization dose-response assay, stable cells expressing zfT1R2a/zfT1R3 with G16gust44.

For the next assay, the system named is mfT1R2b/mfT1R3. Put plainly: Ca2+ mobilization dose-response assay, stable cells expressing mfT1R2b/mfT1R3 with G16gust44. Particulars: 10 mM vs 141.4 mM Cl- buffer.
[1] abbreviates: EC50, [Cl-]o=10 mM, unit inferred.

Structures are written as SMILES.

mfT1R2c/mfT1R3, sequence (Q2MHK3 22-818, one chain of several): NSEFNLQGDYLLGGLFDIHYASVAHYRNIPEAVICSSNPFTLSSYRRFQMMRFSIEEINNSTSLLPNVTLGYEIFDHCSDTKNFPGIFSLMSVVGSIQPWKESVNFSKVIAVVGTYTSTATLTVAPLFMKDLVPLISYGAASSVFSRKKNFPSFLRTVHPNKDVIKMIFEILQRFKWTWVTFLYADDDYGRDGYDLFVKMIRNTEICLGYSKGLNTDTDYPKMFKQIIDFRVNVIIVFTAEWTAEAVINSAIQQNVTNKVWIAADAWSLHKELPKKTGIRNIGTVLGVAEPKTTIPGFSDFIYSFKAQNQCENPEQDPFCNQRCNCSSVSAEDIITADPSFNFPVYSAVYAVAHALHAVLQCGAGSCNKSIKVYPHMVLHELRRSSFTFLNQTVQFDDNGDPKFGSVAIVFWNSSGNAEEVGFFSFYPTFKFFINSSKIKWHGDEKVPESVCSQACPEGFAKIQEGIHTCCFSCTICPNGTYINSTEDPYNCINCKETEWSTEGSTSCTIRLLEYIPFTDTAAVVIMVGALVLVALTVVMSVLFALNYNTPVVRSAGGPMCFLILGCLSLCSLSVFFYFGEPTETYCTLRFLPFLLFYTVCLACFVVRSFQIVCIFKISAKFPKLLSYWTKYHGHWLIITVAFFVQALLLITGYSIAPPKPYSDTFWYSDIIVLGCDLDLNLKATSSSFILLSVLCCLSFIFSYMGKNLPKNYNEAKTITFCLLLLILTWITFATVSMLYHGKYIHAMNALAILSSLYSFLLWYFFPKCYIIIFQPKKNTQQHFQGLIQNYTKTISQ
mfT1R2c/mfT1R3 T105E, sequence (Q2MHK2 entry or part of it T105E): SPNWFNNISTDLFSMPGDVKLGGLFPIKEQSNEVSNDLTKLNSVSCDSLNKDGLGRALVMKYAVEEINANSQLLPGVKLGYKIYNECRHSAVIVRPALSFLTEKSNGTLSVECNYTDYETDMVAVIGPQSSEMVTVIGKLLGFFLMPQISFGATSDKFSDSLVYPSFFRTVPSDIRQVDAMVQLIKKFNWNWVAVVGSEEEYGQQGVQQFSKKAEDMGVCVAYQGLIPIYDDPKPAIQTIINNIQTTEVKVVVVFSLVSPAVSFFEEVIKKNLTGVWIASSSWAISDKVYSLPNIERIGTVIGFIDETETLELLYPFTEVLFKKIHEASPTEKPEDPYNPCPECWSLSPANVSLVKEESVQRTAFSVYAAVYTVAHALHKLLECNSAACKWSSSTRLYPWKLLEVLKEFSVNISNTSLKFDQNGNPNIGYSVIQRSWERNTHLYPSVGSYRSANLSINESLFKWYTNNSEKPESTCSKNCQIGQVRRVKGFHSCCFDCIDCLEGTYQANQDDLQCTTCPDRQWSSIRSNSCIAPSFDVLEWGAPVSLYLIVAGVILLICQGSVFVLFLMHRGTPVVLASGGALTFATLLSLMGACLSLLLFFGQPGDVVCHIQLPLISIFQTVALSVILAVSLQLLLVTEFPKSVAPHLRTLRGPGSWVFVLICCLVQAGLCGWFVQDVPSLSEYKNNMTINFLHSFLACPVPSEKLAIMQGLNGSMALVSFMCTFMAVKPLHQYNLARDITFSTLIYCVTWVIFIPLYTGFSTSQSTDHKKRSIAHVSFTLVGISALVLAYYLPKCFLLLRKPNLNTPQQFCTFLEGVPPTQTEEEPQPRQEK
mfT1R2c/mfT1R3 T105E, sequence (Q2MHK3 entry or part of it): as the sequence (Q2MHK3 22-818, one chain of several) above
mfT1R2a K265E/mfT1R3, sequence (Q2MHK5 entry or part of it K265E, one chain of several): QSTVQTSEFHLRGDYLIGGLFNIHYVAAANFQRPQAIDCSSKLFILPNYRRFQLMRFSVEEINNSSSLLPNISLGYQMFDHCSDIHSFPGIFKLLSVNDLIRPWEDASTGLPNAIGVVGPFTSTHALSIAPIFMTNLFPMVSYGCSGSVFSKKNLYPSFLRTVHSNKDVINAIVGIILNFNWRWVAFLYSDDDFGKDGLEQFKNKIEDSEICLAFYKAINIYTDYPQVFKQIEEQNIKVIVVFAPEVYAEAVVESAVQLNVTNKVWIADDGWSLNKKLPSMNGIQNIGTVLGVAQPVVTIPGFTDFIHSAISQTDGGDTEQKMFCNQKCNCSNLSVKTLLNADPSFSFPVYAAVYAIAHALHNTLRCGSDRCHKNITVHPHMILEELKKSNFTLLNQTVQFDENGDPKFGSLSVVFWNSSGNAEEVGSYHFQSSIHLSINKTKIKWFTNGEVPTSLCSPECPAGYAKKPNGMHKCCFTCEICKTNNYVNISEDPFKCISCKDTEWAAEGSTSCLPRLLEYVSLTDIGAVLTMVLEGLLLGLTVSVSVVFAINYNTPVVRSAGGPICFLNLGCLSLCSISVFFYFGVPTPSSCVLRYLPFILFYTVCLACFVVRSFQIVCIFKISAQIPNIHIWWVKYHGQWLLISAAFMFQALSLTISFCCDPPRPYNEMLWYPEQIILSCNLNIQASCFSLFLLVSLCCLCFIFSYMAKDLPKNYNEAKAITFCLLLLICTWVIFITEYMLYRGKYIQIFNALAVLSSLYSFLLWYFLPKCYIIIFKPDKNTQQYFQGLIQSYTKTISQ
mfT1R2a/mfT1R3 T105E, sequence (Q2MHK2 entry or part of it T105E, one chain of several): as the sequence (Q2MHK2 entry or part of it T105E) above
mfT1R2a K295P/mfT1R3, sequence (Q2MHK5 entry or part of it K295P, one chain of several): as the sequence (Q2MHK5 entry or part of it K265E, one chain of several) above, with E246K, K276P counted along it
mfT1R2a K265A/mfT1R3, sequence (Q2MHK5 entry or part of it K265A, one chain of several): as the sequence (Q2MHK5 entry or part of it K265E, one chain of several) above, with E246A counted along it
Description for mfT1R2a K265A/mfT1R3: (§1) The buffers with lower Cl^− were prepared by progressively replacing NaCl, KCl, CaCl2 and MgCl2 in the buffer with gluconate equivalents[20]. The pH was adjusted to 7.4 with NaOH. Ligands were diluted with the assay buffers at the desired concentrations.
(§2) Measurements of the responses of the cells by cell-based assay based on the intracellular Ca^2+ mobilization were carried out as described previously with some modifications[20],[34],[46],[47]. […] The cells were seeded in 96-well plates (clear-bottomed CellBIND surface plate, Corning, Glendale, AZ, USA) coated with ε-poly-L-lysine (Cosmo Bio, Tokyo, Japan) at approximately 70,000 cells per well. After 20 h, the medium was removed and replaced with high Cl^− buffer. […] Fluorescence changes (i.e., excitation at 485 nm and emission at 525 nm with a cutoff at 515 nm) were monitored at 2 s intervals. […] The response of each well was determined as ∆RFU (delta relative fluorescent units), which was calculated as (maximum fluorescent value)—(minimum fluorescent value). […] Dose‒response fitting curves were calculated by Prism 9 (GraphPad Software, San Diego, CA) using nonlinear regression (log(agonist) vs. response—variable slope), based on the integrated data from the several independent experiments.
Description for mfT1R2a K265E/mfT1R3: as §1
(§3) Measurements of the responses of the cells by cell-based assay based on the intracellular Ca^2+ mobilization were carried out as described previously with some modifications[20],[34],[46],[47]. Cell lines stably expressing T1R2, T1R3 and chimeric G-protein α-subunit, G16gust44[48], were constructed using the Flp-In pcDNA5/FRT complete system (Thermo Fisher Scientific, Waltham, MA, USA) described in our previous studies[34],[46]. […] Fluorescence changes (i.e., excitation at 485 nm and emission at 525 nm with a cutoff at 515 nm) were monitored at 2 s intervals. […] The response of each well was determined as ∆RFU (delta relative fluorescent units), which was calculated as (maximum fluorescent value)—(minimum fluorescent value). […] Dose‒response fitting curves were calculated by Prism 9 (GraphPad Software, San Diego, CA) using nonlinear regression (log(agonist) vs. response—variable slope), based on the integrated data from the several independent experiments.
Description for mfT1R2a K295P/mfT1R3: as §1, §3
Description for mfT1R2a/mfT1R3 T105E: as §1, §3
Description for mfT1R2b E260A/mfT1R3: as §1, §2
Description for mfT1R2b E260K/mfT1R3: as §1, §2
Description for mfT1R2b/mfT1R3: as §1, §2
Description for mfT1R2c/mfT1R3 T105E: as §1, §2
Description for zfT1R2a/zfT1R3: as §1
(§4) Measurements of the responses of the cells by cell-based assay based on the intracellular Ca^2+ mobilization were carried out as described previously with some modifications[20],[34],[46],[47]. […] The cells were seeded in 96-well plates (clear-bottomed CellBIND surface plate, Corning, Glendale, AZ, USA) coated with ε-poly-L-lysine (Cosmo Bio, Tokyo, Japan) at approximately 70,000 cells per well. After 20 h, the medium was removed and replaced with high Cl^− buffer. After 3 h 30 min incubation at 27 °C, cells were loaded with 5 µM calcium-indicator dye Fluo-8 AM (AAT Bioquest, Sunnyvale, CA, USA) diluted in high Cl^− buffer. After incubation for 30 min at 27 °C, the cells were washed with buffers containing appropriate concentrations of Cl^−. The cellular assay was initiated after 3–5 min of resting and was completed within 5 min. The measurements were made using FlexStation 3 (Molecular Devices, Sunnyvale, CA, USA) at 27 °C. Fluorescence changes (i.e., excitation at 485 nm and emission at 525 nm with a cutoff at 515 nm) were monitored at 2 s intervals. A 100-µL aliquot of assay buffer supplemented with 2 × ligands was added at 20 s, and scanning was continued for an additional 40 s. The response of each well was determined as ∆RFU (delta relative fluorescent units), which was calculated as (maximum fluorescent value)—(minimum fluorescent value). […] Such normalized data from more than three independent experiments are reported as the mean ± standard error of the mean (SEM). Dose‒response fitting curves were calculated by Prism 9 (GraphPad Software, San Diego, CA) using nonlinear regression (log(agonist) vs. response—variable slope), based on the integrated data from the several independent experiments.
Description for zfT1R2b/zfT1R3: as §1, §4

Regarding `NC(=O)CC[C@H](N)C(=O)O` [L-Gln, L-glutamine], the EC50 is 864 µM on mfT1R2a/mfT1R3 T105E; 0.000283 M at mfT1R2a K265A/mfT1R3; 0.000208 M at mfT1R2a K265E/mfT1R3; 0.000368 M at mfT1R2a K295P/mfT1R3; 403 µM on mfT1R2a/mfT1R3 (setting [1]). Moreover, in the assay with mfT1R2a/mfT1R3 (10 mM vs 141.4 mM Cl- buffer), the “EC50 in 10 mM Cl- buffer relative to high Cl- buffer” value is “approximately 6.5 times higher”.
On to `O=C(O)[C@@H]1CCCN1` [L-Pro, L-proline], for which the “effect of [Cl-]o on sensitivity” value in the assay on mfT1R2b E260K/mfT1R3 and with mfT1R2b E260A/mfT1R3 was “hardly affected” each time. For the same molecule, the EC50 came out at 26.3 µM on mfT1R2c/mfT1R3 T105E, 15 µM on mfT1R2c/mfT1R3 (setting [1]) and 437 µM at zfT1R2a/zfT1R3 (setting [1]). On mfT1R2c/mfT1R3 (10 mM vs 141.4 mM Cl- buffer), the “increase in EC50 in 10 mM Cl- buffer compared to high Cl- buffer” value is on record as “approximately threefold increase”. Also, the “change of EC50 value with [Cl-]o” value on mfT1R2c/mfT1R3 (range from 10 to 80 mM [Cl-]o) is “almost unchanged”. Further, the “EC50 in 10 mM Cl- buffer relative to high Cl- buffer” value at zfT1R2b/zfT1R3 was “approximately half”; at zfT1R2a/zfT1R3 (10 mM vs 141.4 mM Cl- buffer), “approximately 5 times higher”. Moreover, in the assay on mfT1R2b/mfT1R3, the “effect of anionic buffer composition on sensitivity” value was “hardly affected”.
